Data from PubChem BioAssay AID1918942 (Molecular Pharmacology Branch, DTP, NCI, 2023).

Test system: 743489-274-T-PDC complex spheroid viability
Experiment: Anticancer human tumor 743489-274-T-PDC patient-derived renal cell carcinoma cell line growth inhibition
Settings: for IC50: curve of first compound; for viability, T/C: stronger effect = lower value
In short: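 Drug combinations with the LSD1 inhibitor iadademstat tested on tumor cells co-cultured as spheroids with endothelial cells and mesenchymal stem cells. Concentrations descended in half-log increments from clinical Cmax or 10 microM.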

[1] = second compound 0.1 µM, first compound 0.00949 µM
[2] = second compound 0.1 µM, first compound 0.03 µM
[3] = second compound 0.1 µM, first compound 0.0949 µM
[4] = second compound 0.1 µM, first compound 0.3 µM
[5] = second compound 0.1 µM, first compound 0.949 µM
[6] = second compound 0.1 µM, first compound 3 µM
[7] = second compound 0.316 µM, first compound 0.00949 µM
[8] = second compound 0.316 µM, first compound 0.03 µM
[9] = second compound 0.316 µM, first compound 0.0949 µM
[10] = second compound 0.316 µM, first compound 0.3 µM
[11] = second compound 0.316 µM, first compound 0.949 µM
[12] = second compound 0.316 µM, first compound 3 µM
[13] = second compound 1 µM, first compound 0.00949 µM
[14] = second compound 1 µM, first compound 0.03 µM
[15] = second compound 1 µM, first compound 0.0949 µM
[16] = second compound 1 µM, first compound 0.3 µM
[17] = second compound 1 µM, first compound 0.949 µM
[18] = second compound 1 µM, first compound 3 µM
[19] = second compound 3.16 µM, first compound 0.00949 µM
[20] = second compound 3.16 µM, first compound 0.03 µM
[21] = second compound 3.16 µM, first compound 0.0949 µM
[22] = second compound 3.16 µM, first compound 0.3 µM
[23] = second compound 3.16 µM, first compound 0.949 µM
[24] = second compound 3.16 µM, first compound 3 µM
[25] = second compound 10 µM, first compound 0.00949 µM
[26] = second compound 10 µM, first compound 0.03 µM
[27] = second compound 10 µM, first compound 0.0949 µM
[28] = second compound 10 µM, first compound 0.3 µM
[29] = second compound 10 µM, first compound 0.949 µM
[30] = second compound 10 µM, first compound 3 µM
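Also: spheroids exposed to compounds for 7 days before readout.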
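For viability, T/C in this document: 100% = DMSO vehicle control wells.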

Row | Structure (SMILES) | IC50 (second compound 0.1 µM) [nM] | IC50 (second compound 0.316 µM) [nM] | IC50 (second compound 1 µM) [nM] | IC50 (second compound 3.16 µM) [nM] | IC50 (second compound 10 µM) [nM] | viability, T/C [1] [%] | viability, T/C [2] [%] | viability, T/C [3] [%] | viability, T/C [4] [%] | viability, T/C [5] [%] | viability, T/C [6] [%] | viability, T/C [7] [%] | viability, T/C [8] [%] | viability, T/C [9] [%] | viability, T/C [10] [%] | viability, T/C [11] [%] | viability, T/C [12] [%] | viability, T/C [13] [%] | viability, T/C [14] [%] | viability, T/C [15] [%] | also measured
1 | NS(=O)(=O)OCC1CC(n2ccc3c(NC4CCc5ccccc54)ncnc32)CC1O (stereo not given) + NC1CCC(NC2CC2c2ccccc2)CC1 | > 3000 | > 3000 | > 3000 | > 3000 | > 3000 | 98.6 | 103 | 132 | 133 | 135 | 144 | 92.8 | 103 | 121 | 135 | 146 | 147 | 114 | 108 | 113 | viability, T/C [16]: 142%; viability, T/C [17]: 135%; viability, T/C [18]: 121%; viability, T/C [19]: 98.5%; viability, T/C [20]: 107%; viability, T/C [21]: 128%; viability, T/C [22]: 141%; viability, T/C [23]: 151%; viability, T/C [24]: 151%; viability, T/C [25]: 90.1%; viability, T/C [26]: 105%; viability, T/C [27]: 132%; viability, T/C [28]: 135%; viability, T/C [29]: 129%; viability, T/C [30]: 102%
2 | Nc1ccccc1NC(=O)c1ccc(CNC(=O)OCc2cccnc2)cc1 + NC1CCC(NC2CC2c2ccccc2)CC1 | 932 | > 3000 | 1430 | 1780 | 1270 | 96.2 | 89.4 | 83.7 | 85.4 | 49.3 | 31.2 | 116 | 92.2 | 88.2 | 82.8 | 61.6 | 52.8 | 107 | 94.8 | 88.9 | viability, T/C [16]: 82.9%; viability, T/C [17]: 54.4%; viability, T/C [18]: 36.2%; viability, T/C [19]: 113%; viability, T/C [20]: 97.4%; viability, T/C [21]: 97%; viability, T/C [22]: 80.5%; viability, T/C [23]: 59.4%; viability, T/C [24]: 41%; viability, T/C [25]: 107%; viability, T/C [26]: 109%; viability, T/C [27]: 87.9%; viability, T/C [28]: 79.8%; viability, T/C [29]: 57.1%; viability, T/C [30]: 29.3%
3 | O=C(C=Cc1cccc(S(=O)(=O)Nc2ccccc2)c1)NO + NC1CCC(NC2CC2c2ccccc2)CC1 | > 3000 | 2840 | 2230 | > 3000 | 1910 | 103 | 94.4 | 84.1 | 67.9 | 81.7 | 62.1 | 102 | 96.5 | 87.8 | 80.9 | 69.3 | 47.4 | 100 | 107 | 98.5 | viability, T/C [16]: 78.7%; viability, T/C [17]: 78.5%; viability, T/C [18]: 41.2%; viability, T/C [19]: 108%; viability, T/C [20]: 105%; viability, T/C [21]: 95.5%; viability, T/C [22]: 78.2%; viability, T/C [23]: 69.2%; viability, T/C [24]: 51.9%; viability, T/C [25]: 109%; viability, T/C [26]: 96.2%; viability, T/C [27]: 106%; viability, T/C [28]: 74.9%; viability, T/C [29]: 65.6%; viability, T/C [30]: 41.4%
